Experimental data reported in US20070243577A1, “Method for the detection of apoptosis by determining apoptosis-specific markers released into an extracellular medium through cellular release mechanisms” (Evotec OAI AG, priority 2000, published 2007).

Assays:
Jurkat cells [1] = assay: Extracellular release of cytochrome c into cell culture medium (immunoprecipitation and immunoblot); format: cell-based, human; settings: for cytochrome c in the cell culture medium: 16 h, anti-CD95 mAb 1 μg/ml, etoposide 25 μg/ml, doxorubicin 2 μg/ml
Protocol: 5×10^6 Jurkat cells were cultured in growth medium and either left untreated (control) or stimulated for 16 h with staurosporine (stauro, 2.5 μM), anti-CD95 mAb (α-CD95, 1 μg/ml), etoposide (etopo, 25 μg/ml) or doxorubicin (doxo, 2 μg/ml). Cytochrome c was precipitated from the cell culture medium (m) and the cellular extracts (c) with antibodies against the native molecule. The immunoprecipitated material was separated by SDS-PAGE and analysed by immunoblotting.
5×10^6 Jurkat cells were cultured in growth medium and stimulated for 15 h with the indicated concentrations of anti-CD95 mAb and staurosporine or for 24 h with the indicated concentrations of etoposide or doxorubicin. Cytochrome c was precipitated from the culture medium (m) and the cellular extracts (c) with antibodies against the native molecule. The immunoprecipitated material was separated by SDS-PAGE and analysed by immunoblotting. The quantity of cytochrome c was determined by densitometric analysis. The graphs display the amount of cytochrome c in the culture medium relative to the total amount of cytochrome c present in medium and cells.
1×10^6 Jurkat cells were incubated with medium or staurosporine (stauro, 2.5 μM) and harvested after is the indicated time points (+). A cell culture sample prior to applying staurosporine and a cell culture sample after 15 h without the addition of staurosporine are shown for intercomparison (−). Release of cytochrome c was determined by immunoprecipitation of the medium fractions and subsequent immunoblotting. […] The amounts of cytochrome c in the supernatants indicate the absolute densitometric values.
The human Jurkat T-cell line and mouse L929 fibroblasts were grown at 37° C., 5% CO2, in RPMI-1640 medium supplemented with 10% heat-inactivated fetal calf serum, penicillin and streptomycin (all from GIBCO BRL). Etoposide, actinomycin D and doxorubicin were purchased from Sigma and staurosporine from Roche Diagnostics. All stimuli were dissolved in ethanol and kept at −70° C.

Jurkat cells [2] = assay: Measurement of cell death by flow cytometry (hypodiploid nuclei, PI uptake); format: cell-based, human
Protocol: The percentage of apoptotic hypodiploid cells is shown on the right of the histograms. […] 1×10^6 Jurkat cells were incubated with medium or staurosporine (stauro, 2.5 μM) and harvested after the indicated time points.
Also shown is the detection of cell death by PI (propidium iodide) uptake and of apoptosis by detecting hypodiploid nuclei, both by flow cytometry. The percentage of dead cells or apoptotic hypodiploid cells is shown on the right of the histograms. 1×10^6 cells were cultured in normal growth medium (control), or in the presence of staurbsporine (stauro, 2.5 μM) or the indicated concentrations of H2O2 for 18 h. […] As also shown, cell death was detected by PI (propidium iodide) uptake and apoptosis by detecting hypodiploid nuclei, both by flow cytometry.

Jurkat cells [3] = assay: LDH activity in the supernatant; format: cell-based, human; settings: staurosporine 2.5 μM, 15 hours
Protocol: 1×10^6 Jurkat cells were incubated with medium or staurosporine (stauro, 2.5 μM) and harvested after is the indicated time points (+). A cell culture sample prior to applying staurosporine and a cell culture sample after 15 h without the addition of staurosporine are shown for intercomparison (−). Release of cytochrome c was determined by immunoprecipitation of the medium fractions and subsequent immunoblotting. Heavy; and light chain of anti-cytochrome c antibody and cytochrome c are indicated by open and closed arrowheads, respectively. The LDH activity in the supernatant of apoptotic cells represents the percentage of total LDH activity in the sample. The amounts of cytochrome c in the supernatants indicate the absolute densitometric values. The release of cytochrome c from the cell is a rapid process. Already one hour after apoptosis induction with staurosporine cytochrome c could be detected in the extracellular medium. […] Only about 20% of the total LDH were detected in the supernatants of apoptotic cells after 15 hours of staurosporine treatment.
Cell viability was also determined by monitoring the release of the cytoplasmic enzyme lactate dehydrogenase (LDH), an indicator for cell death. In order to obtain total LDH activity, cells were lysed with 1% Triton X-100. […]

L929 cells [4] = assay: Extracellular release of cytochrome c into cell culture medium (immunoprecipitation and immunoblot); format: cell-based, mouse; settings: TNF-α 10 ng/ml plus actinomycin D 1 μg/ml in presence of zVAD-fmk 100 μM, 8 h
Protocol: 3×10^6 L929 cells were incubated with medium or with TNF-α (10 ng/ml) plus actinomycin D (Act. D, 1 μg/ml) in the absence or presence of the caspase inhibitor zVAD-fmk (benzyloxycarbonyl-Val-Ala-Asp-fluoromethylketone, zVAD, 100 μM) for 8 h. The release of cytochrome c was determined by immunoprecipitation of culture medium (m) and for intercomparison of corresponding cellular extracts (c) and subsequent immunoblotting. Heavy and light chain of the anti-cytochrome c antibody and cytochrome c are indicated by open and closed arrowheads, respectively.
The human Jurkat T-cell line and mouse L929 fibroblasts were grown at 37° C., 5% CO2, in RPMI-1640 medium supplemented with 10% heat-inactivated fetal calf serum, penicillin and streptomycin (all from GIBCO BRL). […] The broad-range caspase inhibitor benzyloxycarbonyl-Val-Ala-Asp-fluoromethylketone (zVAD-fmk) was purchased from Enzyme Systems (Dublin, Calif.); all other chemicals were from Merck KG or Roth GmbH.
To determine the cellular cytochrome c content, cells were collected by centrifugation, washed in cold PBS and extracted in cold lysis buffer (50 mM Tris, pH 7.4, 150 mM NaCl, 1% Triton-X100 containing 3 μg/ml aprotinin, 3 μg/ml leupeptin, 3 μg/ml pepstatin and 2 mM PMSF). […] The amount of immunoprecipitated cytochrome c was determined by densitometric analysis using the NIH image software (National Institutes of Health).

L929 cells [5] = assay: Measurement of cell death by flow cytometry (hypodiploid nuclei, PI uptake); format: cell-based, mouse; settings: TNF-α 10 ng/ml plus actinomycin D 1 μg/ml in presence of zVAD-fmk 100 μM, 8 h
Protocol: Also shown is the detection of cell death by PI (propidium iodide) uptake and of apoptosis by detecting hypodiploid nuclei, both by flow cytometry. The percentage of dead cells or apoptotic hypodiploid cells is shown on the right of the histograms. 3×10^6 L929 cells were incubated with medium or with TNF-α (10 ng/ml) plus actinomycin D (Act. D, 1 μg/ml) in the absence or presence of the caspase inhibitor zVAD-fmk (benzyloxycarbonyl-Val-Ala-Asp-fluoromethylketone, zVAD, 100 μM) for 8 h. The release of cytochrome c was determined by immunoprecipitation of culture medium (m) and for intercomparison of corresponding cellular extracts (c) and subsequent immunoblotting. […] As also shown, cell death was detected by PI (propidium iodide) uptake and apoptosis by detecting hypodiploid nuclei, both by flow cytometry. […]
For determination of apoptosis, Jurkat and L929 cells were seeded in microtiter plates and treated with the cytotoxic agents for the indicated time periods. […] Briefly, apoptotic nuclei were prepared by lysing cells in a hypotonic lysis buffer (1% sodium citrate, 0.1% Triton X-100, 50 μg/ml propidium iodide) and subsequently analysed by flow cytometry. In parallel, cell death as assessed by membrane damage was determined by the uptake of propidium iodide (PI, 2 μg/ml in PBS; Sigma) into non-fixed cells. […]

[6] = Jurkat T-cells, 100 μM and 250 μM, 18 h
[7] = Jurkat cells, staurosporine 2.5 μM

## OO [hydrogen peroxide]
Jurkat cells [1]; [6]
  cytochrome c release into the extracellular cell culture medium: no cytochrome c release
Jurkat cells [2]; [6]
  mode of cell death (PI uptake, hypodiploid nuclei): induced necrotic death

## COc1cccc2c1C(=O)c1c(O)c3c(c(O)c1C2=O)C[C@@](O)(C(=O)CO)C[C@@H]3O[C@H]1C[C@H](N)[C@H](O)[C@H](C)O1 [doxorubicin]
Jurkat cells [1]; [7]
  cytochrome c in the cell culture medium: large amounts of cytochrome c

## CN[C@@H]1C[C@H]2O[C@@](C)([C@@H]1OC)n1c3ccccc3c3c4c(c5c6ccccc6n2c5c31)C(=O)NC4 [staurosporine]
Jurkat cells [1]; [7]
  cytochrome c in the cell culture medium: large amounts of cytochrome c
  time at which cytochrome c could be detected in the extracellular medium: one hour
Jurkat cells [3]
  LDH detected in the supernatants, percentage of total LDH: about 20%
Jurkat cells [2]; [7]
  time until formation of hypodiploid nuclei after triggering apoptosis: ≥ 5 h

## benzyloxycarbonyl-Val-Ala-Asp-fluoromethylketone [zVAD-fmk]
L929 cells [4]
  extracellular cytochrome c release: not during necrotic cell death
L929 cells [5]
  mode of cell death (hypodiploid nuclei, PI uptake): resulted in necrosis

## COc1cc([C@@H]2c3cc4c(cc3[C@@H](O[C@@H]3O[C@@H]5CO[C@@H](C)O[C@H]5[C@H](O)[C@H]3O)[C@H]3COC(=O)[C@H]23)OCO4)cc(OC)c1O [etoposide]
Jurkat cells [1]; [7]
  cytochrome c in the cell culture medium: large amounts of cytochrome c
